Results published in patent US10793892B2, “Method for detecting the presence of expanded spectrum β-lactamase-producing bacteria in a sample” (INSERM (INSTITUT NATIONAL DE LA SANTE ET DE LA RECHERCHE …, priority 2011, dated 2020).

How the values were obtained:
[1] = system: E. cloacae; experiment: ESBL NDP test using cultured strains; type: biochemical, Enterobacter cloacae; design: key: (+) and (−) referred to color change being, red to yellow or unchanged, respectively; (+) and (−) referred to color change being, red to yellow or unchanged, respectively
Method: (§1) Strains were isolated on Mueller-Hinton agar (Biorad, Marnes-la-Coquette, France) and incubated at 37° C. for 16 h to 24 h before performing the NDP rapid ESBL test as follows. One calibrated inoculated loop (10 μl) of the tested strain was resuspended in 150 μl of 20 mM Tris-HCl lysis buffer previously distributed in Microbead tubes (Ultraclean Microbial DNA isolation kit Bead Tubes, MO BIO Laboratories, Carlsbad, USA). Mechanical lysis of bacteria was performed by strong agitation of Microbead tubes using a vortex adapter (MO BIO Laboratories) for 30 min at room temperature. This bacterial suspension was centrifuged at 10,000×g at room temperature for 5 min. Thirty μl of the supernatant was mixed in a well of a 96-well tray with 100 μl of a 1 ml solution made of 3 mg of purified cefotaxime sodium salt (Sigma-Aldrich, Saint-Quentin-Fallavier, France) in a pH 7.8 phenol red solution. […]. The phenol red solution was made by taking 2 ml of a concentrated pH 8 phenol solution (made from a mixture of phenol red 0.5% in distilled water) to which 16.6 ml of distilled water was added. The pH value was then adjusted to a 7.8 value by adding drops of a 1 N NaOH solution. Mixture of the phenol red solution and the enzymatic suspension being tested was incubated at 37° C. for 30 min. Similarly, culture extracts were analyzed in wells containing cefotaxime and tazobactam (4 mg/ml). Other concentrations of tazobactam and other ß-lactamase inhibitors were tested giving less clear results (data not shown). […] This definition of test positivity will be applied throughout the study.

[2] = system: P. stuartii; experiment: ESBL NDP test using cultured strains; type: biochemical, Providencia stuartii; design: key: (+) and (−) referred to color change being, red to yellow or unchanged, respectively; (+) and (−) referred to color change being, red to yellow or unchanged, respectively; conditions: P. stuartii TEM-24, n=1
Method: Strains were isolated on Mueller-Hinton agar (Biorad, Marnes-la-Coquette, France) and incubated at 37° C. for 16 h to 24 h before performing the NDP rapid ESBL test as follows. One calibrated inoculated loop (10 μl) of the tested strain was resuspended in 150 μl of 20 mM Tris-HCl lysis buffer previously distributed in Microbead tubes (Ultraclean Microbial DNA isolation kit Bead Tubes, MO BIO Laboratories, Carlsbad, USA). Mechanical lysis of bacteria was performed by strong agitation of Microbead tubes using a vortex adapter (MO BIO Laboratories) for 30 min at room temperature. This bacterial suspension was centrifuged at 10,000×g at room temperature for 5 min. Thirty μl of the supernatant was mixed in a well of a 96-well tray with 100 μl of a 1 ml solution made of 3 mg of purified cefotaxime sodium salt (Sigma-Aldrich, Saint-Quentin-Fallavier, France) in a pH 7.8 phenol red solution. […]. The phenol red solution was made by taking 2 ml of a concentrated pH 8 phenol solution (made from a mixture of phenol red 0.5% in distilled water) to which 16.6 ml of distilled water was added. The pH value was then adjusted to a 7.8 value by adding drops of a 1 N NaOH solution. Mixture of the phenol red solution and the enzymatic suspension being tested was incubated at 37° C. for 30 min. Similarly, culture extracts were analyzed in wells containing cefotaxime and tazobactam (4 mg/ml). […]

[3] = system: C. freundii; experiment: Susceptibility testing, MIC by Etest; type: cell-based, Citrobacter freundii
Method: (§2) Susceptibility testing was performed by determining MIC values using the Etest® (AB bioMérieux; Solna, Sweden) on Mueller-Hinton agar plates at 37° C. and results were recorded according to US guidelines (CLSI), as updated in 2012 (2). The breakpoints for cefotaxime are susceptible (S)≤1 and resistant (R)≥4 μg/ml, and for ceftazidime S≤4 and R≥16 μg/ml.

[4] = system: E. aerogenes; experiment: Susceptibility testing, MIC by Etest; type: cell-based, Enterobacter aerogenes
Method: as §2

[5] = system: E. coli; experiment: ESBL NDP test using spiked blood cultures; type: biochemical, Escherichia coli; design: key: (+) and (−) referred to color change being, red to yellow or unchanged, respectively; (+) and (−) referred to color change being, red to yellow or unchanged, respectively
Method: as §1
Rapid detection of ESBL producers was attempted from spiked blood cultures which positivity was assessed using the BactAlert blood culture system (bioMérieux). […] This inoculum was reached after 24-48 h incubation in this BactAlert system. Strains were inoculated into blood culture system in presence of 10 ml of sterile blood. The panel of strains used for spiking blood cultures included either non-ESBL producers (n=24) or ESBL producers (n=64) (Table 4). Spiked blood cultures were made of 1×10^3 CFU of each strain and incubated 24 to 48 h before a positivity of the blood culture was detected by the BactAlert system. Then, 15 ml of spiked blood culture were transferred in a sterile tube and centrifuged at 1,500×g for 3 min to pellet the red blood cells. The supernatant was recovered and centrifuged for 15 min at 4,000×g to pellet the bacteria. The bacterial pellet was then resuspended in 500 μl of distilled water, transferred in 1.5 ml tube and thoroughly vortexed for 15 sec to lyse the remnant red blood cells and wash the bacterial pellet. After 5 min of centrifugation at 10,000×g, the bacterial pellet was resuspended in 150 μl of 20 mM Tris-HCl lysis buffer and distributed in beadtubes. The ESBL NDP test was then applied to this pellet as described above. Experiments were systematically performed in triplicate.

Compound: CO/N=C(\C(=O)N[C@@H]1C(=O)N2C(C(=O)O)=C(COC(C)=O)CS[C@H]12)c1csc(N)n1 [CTX, cefotaxime]
- ESBL NDP Test from: Colonies ([1]; E. cloacae 09.57, SHV-12): +
- ESBL NDP Test from: Colonies ([1]; E. cloacae 10.75, CTX-M-15): +
- ESBL NDP Test from: Colonies ([1]; E. cloacae 10.87, CTX-M-15): +
- ESBL NDP Test from: Colonies ([1]; E. cloacae BG 1106 7725, Wild-type): −
- ESBL NDP Test from: Colonies ([1]; E. cloacae BG 1106 7746, Wild-type): −
- ESBL NDP Test from: Colonies ([1]; E. cloacae BG 1107 4118, Wild-type): −
- Test (color change) ([1]; E. cloacae CTX-M-14, n=1): +
- Test (color change) ([1]; E. cloacae CTX-M-15, n=17): +
- Test (color change) ([1]; E. cloacae GES-5, n=1): +
- Test (color change) ([1]; E. cloacae PER-1, n=1): +
- Test (color change) ([1]; E. cloacae SHV-5, n=1): +
- Test (color change) ([1]; E. cloacae SHV-12, n=6): +
- Test (color change) ([1]; E. cloacae TEM-3, n=2): +
- Test (color change) ([1]; E. cloacae VEB-1, n=1): +
- Test (color change) ([1]; E. cloacae Wild-type, chromosome-encoded cephalosporinase, n=5): −
- Test (color change) ([1]; E. cloacae, overexpressed chromosome-encoded cephalosporinase, n=2): −
- Test (color change) ([1]; E. cloacae, overexpressed chromosome-encoded cephalosporinase, n=3): +
- Test (color change) [2]: −
- MICs range ([3]; C. freundii CTX-M-15, n=3): >16 µg/mL
- MICs range ([3]; C. freundii TEM-3, n=1): >16 µg/mL
- MICs range ([3]; C. freundii Wild-type, chromosome-encoded cephalosporinase, n=1): 0.12 µg/mL
- MICs range ([4]; E. aerogenes TEM-24, n=6): 0.5 to 8 µg/mL
- MICs range ([4]; E. aerogenes TEM-121, n=1): <0.06 µg/mL
- MICs range ([4]; E. aerogenes Wild-type, chromosome-encoded cephalosporinase, n=1): 0.094 µg/mL
- ESBL NDP Test from: Blood culture ([5]; E. coli 09.11, TEM-52): +
- ESBL NDP Test from: Blood culture ([5]; E. coli 09.123, TEM-133): +
- ESBL NDP Test from: Blood culture ([5]; E. coli 09.124, TEM-52): +
- ESBL NDP Test from: Blood culture ([5]; E. coli 09.129, SHV-12): +
- ESBL NDP Test from: Blood culture ([5]; E. coli 09.173, SHV-12): +
- ESBL NDP Test from: Blood culture ([5]; E. coli 09.187, SHV-2a): +
- ESBL NDP Test from: Blood culture ([5]; E. coli 09.193, SHV-12): +
- ESBL NDP Test from: Blood culture ([5]; E. coli 09.207, SHV-2a): +
- ESBL NDP Test from: Blood culture ([5]; E. coli 09.225, TEM-52): +
- ESBL NDP Test from: Blood culture ([5]; E. coli 09.40, TEM-52): +
- ESBL NDP Test from: Blood culture ([5]; E. coli 09.41, SHV-12): +
- ESBL NDP Test from: Blood culture ([5]; E. coli 09.66, TEM-52): +
- ESBL NDP Test from: Blood culture ([5]; E. coli 09.73, TEM-52): +
- ESBL NDP Test from: Blood culture ([5]; E. coli 09.79, SHV-12): +
- ESBL NDP Test from: Blood culture ([5]; E. coli 09.92, TEM-52): +
- ESBL NDP Test from: Blood culture ([5]; E. coli 10.104, CTX-M-1): +
- ESBL NDP Test from: Blood culture ([5]; E. coli 10.11, CTX-M-14): +
- ESBL NDP Test from: Blood culture ([5]; E. coli 10.121, CTX-M-2): +
- ESBL NDP Test from: Blood culture ([5]; E. coli 10.124, CTX-M-14): +
- ESBL NDP Test from: Blood culture ([5]; E. coli 10.130, CTX-M-3): +
- ESBL NDP Test from: Blood culture ([5]; E. coli 10.13, CTX-M-14): +
- ESBL NDP Test from: Blood culture ([5]; E. coli 10.132, CTX-M-2): +
- ESBL NDP Test from: Blood culture ([5]; E. coli 10.16, CTX-M-15): +
- ESBL NDP Test from: Blood culture ([5]; E. coli 10.178, CTX-M-27): +
- ESBL NDP Test from: Blood culture ([5]; E. coli 10.198, CTX-M-27): +
- ESBL NDP Test from: Blood culture ([5]; E. coli 10.204, CTX-M-27): +
- ESBL NDP Test from: Blood culture ([5]; E. coli 10.207, CTX-M-27): +
- ESBL NDP Test from: Blood culture ([5]; E. coli 10.23, CTX-M-2): +
- ESBL NDP Test from: Blood culture ([5]; E. coli 10.32, CTX-M-14): +
- ESBL NDP Test from: Blood culture ([5]; E. coli 10.33, CTX-M-15): +
- ESBL NDP Test from: Blood culture ([5]; E. coli 10.36, CTX-M-1): +
- ESBL NDP Test from: Blood culture ([5]; E. coli 10.38, CTX-M-1): +
- ESBL NDP Test from: Blood culture ([5]; E. coli 10.43, CTX-M-15): +
- ESBL NDP Test from: Blood culture ([5]; E. coli 10.46, CTX-M-14): +
- ESBL NDP Test from: Blood culture ([5]; E. coli 10.49, CTX-M-15): +
- ESBL NDP Test from: Blood culture ([5]; E. coli 10.53, CTX-M-9): +
- ESBL NDP Test from: Blood culture ([5]; E. coli 10.64, CTX-M-32): +
- ESBL NDP Test from: Blood culture ([5]; E. coli 10.73, CTX-M-27): +
- ESBL NDP Test from: Blood culture ([5]; E. coli 10.74, CTX-M-15): +
- ESBL NDP Test from: Blood culture ([5]; E. coli 10.95, CTX-M-1): +
- ESBL NDP Test from: Blood culture ([5]; E. coli (Belgium), ACC-1): −
- ESBL NDP Test from: Blood culture ([5]; E. coli A7R5, SHV-3): +
- ESBL NDP Test from: Blood culture ([5]; E. coli BG 1106 5698, Penicillinase): −
- ESBL NDP Test from: Blood culture ([5]; E. coli BG 1106 6252, Wild-type): −
- ESBL NDP Test from: Blood culture ([5]; E. coli BG 1106 6367, Wild-type): −
- ESBL NDP Test from: Blood culture ([5]; E. coli BG 1106 7202, Penicillinase): −
- ESBL NDP Test from: Blood culture ([5]; E. coli BG 1107 8873, Wild-type): −
- ESBL NDP Test from: Blood culture ([5]; E. coli BG 1108 6157, Penicillinase): −
- ESBL NDP Test from: Blood culture ([5]; E. coli C5O52, CTX-M-28): +
- ESBL NDP Test from: Blood culture ([5]; E. coli Ec13 SYD, CMY-2): +
- ESBL NDP Test from: Blood culture ([5]; E. coli GOU, DHA-1): −
- ESBL NDP Test from: Blood culture ([5]; E. coli LOU, ACC-1): +
